Source: publication PMC9297947 (Chembiochem, 2021)
* marks the point of attachment. X1 = Nc1ncnc2c1ncn2[C@@H]1O[C@H](C(=O)NCCNC(=O)CCN2C(=O)CC(*)C2=O)[C@@H](O)[C@H]1O

How the values were obtained:
AurA [1] = molecular target: T1, AurA (Homo sapiens, UniProt O14965); experiment: Lineweaver-Burk inhibition mechanism (IMAP TR-FRET, various ATP), AurA; format: biochemical; conditions: Lineweaver-Burk plot, various concentrations of ATP
T1 construct: purchased Carna Bioscience
T1 sequence (O14965 1-403): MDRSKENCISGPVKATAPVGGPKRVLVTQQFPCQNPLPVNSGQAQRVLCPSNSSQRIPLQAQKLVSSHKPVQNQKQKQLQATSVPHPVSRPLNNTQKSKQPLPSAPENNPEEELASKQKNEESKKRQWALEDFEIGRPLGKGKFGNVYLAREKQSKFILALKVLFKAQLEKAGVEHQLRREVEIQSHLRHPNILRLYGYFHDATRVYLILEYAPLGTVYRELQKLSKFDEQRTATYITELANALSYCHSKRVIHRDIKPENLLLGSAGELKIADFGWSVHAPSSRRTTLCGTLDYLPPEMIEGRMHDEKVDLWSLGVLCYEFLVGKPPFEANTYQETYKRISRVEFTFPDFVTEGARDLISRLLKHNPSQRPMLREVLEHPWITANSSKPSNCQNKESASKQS
Source text: Inhibition Mechanism of Peptide inhibitor Bip-3 for Aurora-A
Lineweaver-Burk plots were generated by plotting the TR-FRET ratio values, which are proportional to reaction velocity in these conditions [8,9], as a function of the velocity versus ATP concentration ratio (v/[ATP]) at different concentrations of the peptide [19,20].

AurA [2] = molecular target: T1, AurA; experiment: IMAP TR-FRET kinase inhibition assay, AurA; format: biochemical; conditions: for IC50: FAM-Kemptide 1 µM, ATP 5 µM (Table S2; Figure 3 legend prints mM), TBS reaction buffer
[3] = test system: phage infectivity of the host TG1 E. coli cells; experiment: Phage infectivity after chemical modification; conditions: higher concentrations within 0.5–500 μM in PBS, room temperature, 2 h; P8-2KA phage clone
Protocol: Mild conditions are required for modification to minimize damage to phage clones so that they remain infectious to the host Escherichia coli cells.[[8a]] […] Phage clones (10^11 cfu) of P8‐2KA were treated with 200 μL of serially diluted maleimide‐PEG2‐biotin (0.5–500 μM) in PBS at room temperature for 2 h (Supporting Figure S3).
2. Chemical Modification of HLH peptide on Phage
All of the experiments were performed as described. 200 µL of phage (1012 cfu) was dissolved in PBS (pH 7.0), and 1 µL of 1 mM Maleimide-PEG2-biotin (EZ-Link® Maleimide-PEG2-Biotin, Thermo Scientific) was added and incubated for 2 hr at room temperature. To eliminate the residual reagents in phage solution, the treated solution was purified by ultrafiltration at 14,000 g for 20 min at 4 C by using Amicon® Ultra 0.5 mL Ultracel® 10K (Millipore). After discarding the flow-through, 200 µL of chilled PBST was added, and centrifugated as the same above. 100 µL of the chemically modified phage was added to Streptavidin High Capacity Coated Plate (SIGMA). Detection of phages was performed as described above by using Anti-M13 antibody conjugated with HRP.
3. The Infectivity of phages after Chemical Modification
All of the experiments were performed as described. […] Then the E. coli cells were inoculated onto LB/Agar containing 20 µg/mL chloramphenicol over night at 37°C, and colonies were counted. […]

KDR (VEGF receptor) = experiment: Phage ELISA, KDR; format: binding; conditions: phage clone displaying P8-2KA, 10^10 cfu; HRP anti-M13, OD490
Protocol: (§1) All of the experiments were performed as described . In this study, the insert fragment encoding of helix-loop- helix (HLH) peptide P8-2KA and phage clone displaying no peptide were prepared. With regard to clone P8-2KA, the insert fragment was initially prepared by overlap extension PCR using P8-2KA 1 fwd and P8-2KA 1 rev. After purification of the fragment, restriction site SfiI and E-tag epitope were introduced by the following PCR using Sfi- YT1- CD 2 fwd and Etag- linker 2 rev, and the product was purified. The fragment was fused with the pIII gene amplified by the two primers prepcr and Sfi2fo with the template fdg3p0ss21, and a fragment encoding P8- 2KA- fused pIII was prepared as described. After digestion of the fragment by SfiI and the succeeding purification, the fragment was ligated with fdg3p0ss21-stop which was digested with the same restriction enzyme. As a negative control, we also prepared a clone displaying no HLH peptide on phage. To prepare the phage clone, only linker primer was used in the PCR together with Sfi2fo and the pIII gene amplified from the template fdg3p0ss21 as described above. […]
(§2) […] After was hing the wells with PBST 10 times, 100 µL of HRP Anti-M13 antibody conjugated (1:4000) was added, and the OD490 values were measured after adding o-phenylene diamine ([…] OPD, SIGMA) and adding 50 µL of

G‐CSF‐R [4] = experiment: Phage ELISA, G-CSF-R; format: binding; conditions: phage clone displaying P8-2KA, 10^10 cfu; HRP anti-M13, OD490
Protocol: as §1, §2

G‐CSF‐R [5] = conditions: ref [2e] El-Haggar et al., Bioorg. Med. Chem. Lett. 2010; cited from earlier work
Source text: Mild conditions are required for modification to minimize damage to phage clones so that they remain infectious to the host Escherichia coli cells.[[8a]]

anti‐E‐tag antibody = experiment: Phage ELISA, anti-E-tag antibody; format: binding; conditions: phage clone displaying P8-2KA, 10^10 cfu; HRP anti-M13, OD490
Protocol: as §1, §2

BSA = experiment: Phage ELISA, BSA; format: binding; conditions: phage clone displaying P8-2KA, 10^10 cfu; HRP anti-M13, OD490
Protocol: as §1, §2

[6] = test system: AurA, AurB, AurC, PAK4, Erk2, PKACα, and Src; experiment: IMAP TR-FRET kinase selectivity panel; format: biochemical; conditions: 5 μM Bip-3-Adc vs AurA
Protocol: Figure 3 Inhibitory activities of the selected peptide Bip‐3 and the adenosine‐tethering peptide Bip‐3‐Adc for AurA. (a) The structure of synthesized Bip‐3‐Adc, Bip‐3, and the original HLH peptide YT1. (b) The CD spectra of 20 μM Bip‐3 and YT1 measured in TBS at 20 °C. (c) The binding activity of Bip‐3 to immobilized AurA as determined by SPR experiments (TBS, 0.005 % P‐20, 25 °C). (d) Dose‐dependent inhibitory activities of Bip‐3 and Bip‐3‐Adc for AurA measured using an IMAP® TR‐FRET assay. Inhibition of AurA was determined at 100 ng/mL AurA, 1 mM 5FAM‐Kemptide, 5 mM ATP, in TBS reaction buffer. (e) Inhibitory activities of 5 μM Bip‐3‐Adc for AurA, AurB, AurC, PAK4, Erk2, PKACα, and Src, determined using the IMAP® TR‐FRET assay.
CD spectra were recorded in TBS at overall peptide concentration of 20 μM on a J-820 spectrometer at 20°C (PTC-423L thermostat, Jasco). The peptide concentrations were determined by measuring absorbance of aromatic residues of peptide dissolved in 6 M Gdn•HCl at UV 280 nm[14].
9. Surface Plasmon Resonance […]
denaturation of AurA, measurements were performed without regeneration of the sensor chip surface at each cycle, and any cycles were started after complete dissociation of analytes from the sensor chip. […] The concentration of adenosine-labeled peptide was determined by using the molar extinction coefficient of adenosine, and aromatic residues at UV 260 […]

Circular dichroism = format: physicochemical; conditions: CD, 20 μM peptide in TBS, 20 °C; compared with YT1
Aurora kinase A (AurA) = molecular target: T2, Aurora kinase A (AurA) (Homo sapiens, UniProt O14965); experiment: SPR
T2 chain: T1 sequence (O14965 1-403)

[7] = 100 ng/mL AurA, 1 hr, room temperature

Molecule: Nc1ncnc2c1ncn2[C@@H]1O[C@H](CO)[C@@H](O)[C@H]1O [adenosine]
- mode of inhibition with respect to ATP (AurA [1]): competitive inhibition for ATP
- IC50 (AurA [2]; [7]): 0.474 mM

Molecule: O=C(CCCC[C@@H]1SC[C@@H]2NC(=O)N[C@@H]21)NCCOCCOCCNC(=O)CCN1C(=O)C=CC1=O [maleimide‐PEG2‐biotin]
- phage infectivity of TG1 E. coli cells [3]: small loss of phage infectivity

Molecule: AELAALEAELAALE‐G7‐KLAALKAKLAALKAY [YT1]
- inhibitory activity for AurA (AurA [2]; [7]): no inhibitory activity

Molecule: CDGGSGGGS‐AELAALEAELAALE‐G7‐KLAMLKLKLAELKRY [P8‐2KA]
- binding to KDR (KDR (VEGF receptor)): no binding was observed
- binding to G-CSF-R (G‐CSF‐R [4]): selective binding
- Kd (G‐CSF‐R [5]): 0.214 µM
- binding to anti-E-tag antibody (anti‐E‐tag antibody): bound to anti‐E‐tag antibody
- binding to BSA (BSA): no binding was observed

Molecule: H-C(X1)DGGSGGGSAELAALEAELAALEGGGGGGGKLEYLKWKLWPLKGW-NH2 [Bip‐3‐Adc]
- mode of inhibition with respect to ATP (AurA [1]): uncompetitive inhibition
- fold difference in IC50 (inhibition of AurA) vs Bip-3 (AurA [2]; Bip-3-Adc vs Bip-3 (IC50 103 μM)): 13 fold
- fold difference in IC50 (inhibition of AurA) vs adenosine (AurA [2]; Bip-3-Adc vs adenosine (IC50 474 μM)): 62 fold
- kinase selectivity [6]: highest inhibitory activity and remarkable selectivity for AurA

Molecule: H-CDGGSGGGSAELAALEAELAALEGGGGGGGKLEYLKWKLWPLKGW-NH2 [Bip‐3]
- mode of inhibition with respect to ATP (AurA [1]): mixed inhibition
- IC50 (AurA [2]; [7]): 0.103 mM
- α-helical content (Circular dichroism): high α‐helical content comparable with that of the original peptide YT1

B1: Bip-3 (peptide)
chain: CDGGSGGGSAELAALEAELAALEGGGGGGGKLEYLKWKLWPLKGW
- Kd (Aurora kinase A (AurA)): 13.7 µM
